According to the NIST ThermoML archive (doi:10.1021/je050520f):
± gives the expanded uncertainty stated by the source.

Key:
[1] = refractive index (Na D-line) (dimensionless); details: 101.33 kPa, Liquid
[2] = 101.33 kPa, Liquid

Question: Which refractive index ([1]; 293.15 K, Abbe refractometer) does the source give for `O` [water] here?
Answer: Its refractive index is 1.3336 ± 0.0005.

Question: What does the source list for `CCCCCCCC` [octane]?
Answer: mass density ([2]; 298.15 K): 698.49 ± 0.31 kg/m3; refractive index ([1]; 298.15 K): 1.3946 ± 0.0007

Question: Which results are given for `Cc1ccccc1` [toluene]?
Answer: mass density ([2]; 293.15 K): 866.78 ± 0.19 kg/m3; refractive index ([1]; 293.15 K, Abbe refractometer): 1.496 ± 0.0006

Question: What does the source list for `NC1CCCCC1` [cyclohexylamine]?
Answer: mass density ([2]; 303.15 K): 858.2 ± 0.2 kg/m3; refractive index ([1]; 288.15 K, Abbe refractometer): 1.4624 ± 0.0005

Question: For `CCCCCCC` [heptane], which mass density ([2]; 298.15 K) is on record?
Answer: Its mass density is 679.43 ± 0.36 kg/m3.

Question: What about the refractive index ([1]; 298.15 K, Abbe refractometer) of the same compound?
Answer: Its refractive index is 1.3853 ± 0.0003.

Question: Which mass density ([2]; 298.15 K) does the source give for `CCCc1ccccc1` [propylbenzene] here?
Answer: Its mass density is 860.79 ± 0.28 kg/m3.

Question: What about the refractive index ([1]; 298.15 K, Abbe refractometer) of the same compound?
Answer: The refractive index was 1.4901 ± 0.0006.
